We go through 2 molecules from patent US10695355B2, “Methods for pharmacologic treatment of stroke” (University of Connecticut, priority 2017, dated 2020).

Data set [1] relates to Middle Cerebral Artery occlusion (MCAo) model, male C57B/6 mice. The data set can be described thus: Open field test (exploratory activity, anxiety-like behavior) after MCAo stroke. Format: in vivo. The settings on record: first dose 4 hour after stroke, reperfusion 30 days. From the text: (§1) Sensory motor deficit test: We used the open field test (OFT) and rotarod test to measure spontaneous locomotor activity/anxiety-like behavior and motor balance coordination, respectively, at baseline and post-mcao days 2, 7, 14, 21, and 28. As the OFT is a non-stressful test, we performed the OFT prior to the rotarod test, on the same day with one hour difference between tests.
Open field test: The OFT is a common measure of exploratory behavior and general activity in rodents, which can be used both qualitatively and quantitatively. Briefly, we placed mice in a corner of a clear acrylic box (16″×16″) and allowed them to explore the box for ten minutes. We quantified locomotor activity as the total number of beam breaks by a computer-operated, open-field photobeam activity system (San Diego Instruments, San Diego, Calif.). We calculated the percentage of beam breaks in the center zone (16/3″×16/3″) compared to the total as a measure of anxiety-like behavior. Importantly, OFT tests can be administered at several time points to view trends without hindrance by habituation.
Male C57B/6 (2-3 month old; 22-28 g) mice were used in a Middle Cerebral Artery occlusion (MCAo) model. The ischemia duration was 60 mins and the reperfusion was 30 days. […] Vehicle was 1% DMSO in 0.5% methyl cellulose (n=5 Behaviors were measured weekly using methods described above. (n=7).

For data set [2] the test system is unchanged. The data set can be described thus: Rotarod test (sensorimotor deficit) after MCAo stroke. It is filed as in vivo. Conditions: 0.5 mg/kg p.o./day for 3 days, first dose 4 hour after stroke; reperfusion 30 days, measured weekly; drug vs vehicle.
Text: as §1
Rotarod test: The rotarod test examines motor coordination in mice. We placed mice on a rotating cylindrical rod accelerating from two to ten rotations per minute, over a span of five minutes. Each subject performed two trials with a 20-minute break between the two trials. We recorded the latency to fall from the rotating rod for each trial (in seconds), and used the mean latency for comparison between groups.
Male C57B/6 (2-3 month old; 22-28 g) mice were used in a Middle Cerebral Artery occlusion (MCAo) model. The ischemia duration was 60 mins and the reperfusion was 30 days. The drug was 5-BDBD- (0.5 mg/kg p.o./day in 1% DMSO and 0.5% methyl cellulose suspension) administered for 3 days. The first dose was given at 4 hour after stroke. Vehicle was 1% DMSO in 0.5% methyl cellulose (n=5 Behaviors were measured weekly using methods described above. (n=7).
(The rotarod test checks motor coordination on a turning rod.)

For data set [3] the test system is unchanged. Put plainly: Infarct volume after middle cerebral artery occlusion (MCAo) stroke. It is filed as in vivo. Conditions: 60 min ischemia, 72 h reperfusion, vs vehicle. From the text: (§2) Middle cerebral artery occlusion and bilateral ovariectomy: We induced focal transient cerebral ischemia by a 60-minute right middle cerebral artery occlusion (MCAo) under isoflurane anesthesia followed by reperfusion for either 3, 15, or 30 days. […] The 15- and 30-day time points represent sub-acute and chronic recovery as discussed in the art. Briefly, we performed a midline ventral neck incision and unilateral right MCAo by advancing a 6.0 silicone rubber-coated monofilament (Doccol Corporation, CA) 10-11 mm from the internal carotid artery bifurcation via an external carotid artery stump. We monitored rectal temperatures with a temperature control system (Fine Science Tools, Canada), maintaining the temperature at approximately 37° C. during surgery with an automatic heating pad. We used laser doppler flowmetry (DRT 4/Moor Instruments Ltd, Devon, UK) to measure cerebral blood flow and to confirm occlusion (reduction to 15% of baseline cerebral blood flow) and reperfusion. All animals were fed with wet mash for one week after surgery to ensure adequate nutrition for chronic endpoints, as animals have rearing deficits after stroke. In sham mice, we performed identical surgeries except the suture was not advanced into the internal carotid artery. For the gonadal hormone-mediated outcome study, we ovariectomized (ovxed) female mice two weeks prior to stroke surgery.
Cresyl violet staining for infarct volume and tissue atrophy analysis: We measured tissue infarct (day 3) or tissue atrophy (day 30) after stroke as described in the art. Briefly, we sacrificed the mice after stroke surgery with an overdose of Avertin (250 mg/kg intraperitoneally, i.p). After blood collection by cardiac puncture, we performed trans-cardiac perfusion on the mice using cold phosphate buffered saline (PBS) followed by 4% paraformaldehyde. Brains were then fixed overnight and placed in cryoprotectant (30% sucrose in PBS) for 72 hours before processing. We then sliced the brains into 30-μm free-floating sections using a freezing microtome; every eighth slice was mounted and stained with cresyl violet. […]

Data set [4] shares this test system. The data set can be described thus: Neurological deficit (ND) score after MCAo stroke. Format: in vivo.
Text: as §2
Neurological deficit score: The neurological deficit (ND) score is a crude assessment of post-stroke behavioral recovery. We recorded ND scores, ranging from 0 to 4, at several time points after stroke. Our standard scoring system was as follows: 0, no deficit; 1, forelimb weakness and torso turning to the ipsilateral side when held by the tail; 2, circling to affected side; 3, unable to bear weight on affected side; and 4, no spontaneous locomotor activity or barrel rolling.
Male C57B/6 (2-3 month old; 22-28 g) mice were used in this experiment. The ischemia duration was 60 minutes, with reperfusion for 72 hours. […]

The next data set is described as follows: Solubility in water/PBS. It is filed as physicochemical.
[5] abbreviates: 0.5 mg/kg p.o./day for 3 days, first dose 4 hour after stroke, cresyl violet.

Turning to `O=C1CN=C(c2cccc(Br)c2)c2oc3ccccc3c2N1` [5-BDBD, 5-(3-Bromophenyl)-1,3-dihydro-2H-Benzofuro[3,2-e]-1,4-diazepin-2-one], the “post stroke anxiety (% C/P = % time spent in center/time spent in periphery)” value in data set [1] (0.5 mg/kg p.o./day for 3 days (acute treatment)) was “reduces post stroke anxiety up to a month”. In data set [1] (0.5 mg/kg p.o./day for 3 days, drug vs vehicle), the total exploratory activity result was “similar”. For the same molecule, the “rotarod test (test for sensorimotor deficit)” value in data set [2] was “overall significant difference”. In addition, in data set [3] (setting [5]), the cortical infarct volume result is listed as “reduces” and the hemispheric infarct volume entry is “reduces”. Moreover, the “Neurological deficit score measured after 3 days of stroke” value in data set [4] (0.5 mg/kg p.o./day for 3 days, first dose 4 hour after stroke, 60 min ischemia, vs vehicle) was “reduces”. In addition, the “neurological deficit (ND) score” value in data set [4] (oral 0.5 mg/kg daily for 5 days beginning on the day of stroke, MCAo 60 minute followed by reperfusion) is “improved significantly”.
As for `O=C1CC(=O)N(c2cccc(-c3noc(=S)[nH]3)c2)c2ccc3ccccc3c2N1` [NP-1815-PX, 5-[3-(5-thioxo-4H-[1,2,4]oxadiazol-3-yl)phenyl]-1H-naphtho[1,2-b][1,4]diazepine-2,4(3H,5H)-dione], in data set [3] (0.5-5 mg/kg in 1xPBS via Alzet mini osmotic pump (SC) for 3 days, TTC), the stroke infarct size result is “could reduce”. Further, the solubility result in “Solubility in water/PBS” is recorded as “Water/PBS Soluble”. In addition, the ND score entry in data set [4] (0.5-5 mg/kg in 1xPBS via Alzet mini osmotic pump (SC) for 3 days, after 3 days of stroke, vs vehicle) is “improve”.
